Test system: conscious male spontaneously hypertensive rats (SHR)
Test: anti-hypertensive response: area under the control group blood pressure curve (mean arterial blood pressure, indwelling catheter) in conscious male spontaneously hypertensive rats
Assay type: in vivo
Conditions: cromakalim 0.075 mg/kg po, n=10
Description: Mean arterial blood pressures were measured from an indwelling catheter as described by Buckingham 1976 J. Pharm. Pharmac Vol. 28, pp 459-461. 1. Calculation of area under the control group blood pressure curve (AUC). Group mean arterial blood pressure values were calculated as % change from the pretreatment baseline. For each drug treatment group the area under the control group blood pressure curve was calculated using a trapezoidal method. […] Predicted AUC values were arrived at by combining values for each treatment given alone.

CC1(C)Oc2ccc(C#N)cc2[C@@H](N2CCCC2=O)[C@@H]1O (racemic) [Cromakalim, (±)-6-cyano-3,4-dihydro-2,2-dimethyl-trans-4-(2-oxo-1-pyrrolidinyl)-2H-benzo[b]pyran-3-ol]
AUC (0-2 h) (0-2 h): 1941 | AUC (0-4 h) (0-4 h): 2981

Reference: US5032591A, “Pharmaceutical preparations” (Beecham Group p.l.c., priority 1988, dated 1991)
